Laboratory results: US7504035B2, “Treatment of putrescrible cakes” (United Utilities PLC, priority 2005, dated 2009)

What was measured:
Format in all cases: cell-based
E. coli [1] = assay: E. coli content of digested sludge cake (24.8% solids) treated with urea; settings: digested sewage sludge 24.8% solids
Description: Samples of digested sludge cake with mean solids content of 24.8% were treated with various amounts of urea. The E. coli content (cfu/g dry weight) of the samples was monitored over a period.

pathogens in the cake = assay: Pathogen deactivation in sewage sludge cake (general statement); settings: low concentration added to sewage sludge cake, particularly septic cake
E. coli [2] = assay: E. coli content of raw sewage sludge cake (25.6% DS) treated with urea; settings: raw sewage sludge 25.6% DS
Description: Samples of raw sewage sludge cake with mean solids content of 25.6% were treated with various amounts of urea. The E. coli content (cfu/g dry weight) of the samples was monitored over a period.

Question: With `NC(N)=O` [urea] as the compound, how does the E. coli content (E. coli [1]; 0.5% dose urea, day 0) read?
Answer: The E. coli content was 4.67E+04 cfu/g dry weight.

Question: And the E. coli content (E. coli [1]; 0.5% dose urea, day 1)?
Answer: The E. coli content was 1.86E+03 cfu/g dry weight.

Question: And the E. coli content (E. coli [1]; 0.5% dose urea, day 4)?
Answer: Its E. coli content is 1.21E+02 cfu/g dry weight.

Question: And the E. coli content (E. coli [1]; 0.5% dose urea, day 7)?
Answer: Its E. coli content is 1.94E+02 cfu/g dry weight.

Question: And the E. coli content (E. coli [1]; 0.5% dose urea, day 14)?
Answer: The E. coli content was 3.90E+01 cfu/g dry weight.

Question: And the E. coli content (E. coli [1]; 0.5% dose urea, day 50)?
Answer: Its E. coli content is 5.40E+01 cfu/g dry weight.

Question: What about the E. coli content (E. coli [1]; 1.0% dose urea, day 0) of the same compound?
Answer: Its E. coli content is 1.79E+04 cfu/g dry weight.

Question: What about the E. coli content (E. coli [1]; 1.0% dose urea, day 1) of the same compound?
Answer: Its E. coli content is 6.97E+03 cfu/g dry weight.

Question: What about the E. coli content (E. coli [1]; 1.0% dose urea, day 4) of the same compound?
Answer: Its E. coli content is 7.90E+01 cfu/g dry weight.

Question: And the E. coli content (E. coli [1]; 1.0% dose urea, day 7)?
Answer: The E. coli content was 7.90E+01 cfu/g dry weight.

Question: And the E. coli content (E. coli [1]; 1.0% dose urea, day 14)?
Answer: Its E. coli content is 1.34E+02 cfu/g dry weight.

Question: And the E. coli content (E. coli [1]; 1.0% dose urea, day 50)?
Answer: The E. coli content was 1.85E+02 cfu/g dry weight.

Question: What about the E. coli content (E. coli [1]; 1.5% dose urea, day 0) of the same compound?
Answer: The E. coli content was 1.19E+04 cfu/g dry weight.

Question: What about the E. coli content (E. coli [1]; 1.5% dose urea, day 1) of the same compound?
Answer: Its E. coli content is 4.57E+03 cfu/g dry weight.

Question: What about the E. coli content (E. coli [1]; 1.5% dose urea, day 4) of the same compound?
Answer: The E. coli content was 3.70E+01 cfu/g dry weight.

Question: What about the E. coli content (E. coli [1]; 1.5% dose urea, day 7) of the same compound?
Answer: Its E. coli content is 1.54E+02 cfu/g dry weight.

Question: And the E. coli content (E. coli [1]; 1.5% dose urea, day 14)?
Answer: The E. coli content was 7.90E+01 cfu/g dry weight.

Question: And the E. coli content (E. coli [1]; 1.5% dose urea, day 50)?
Answer: Its E. coli content is 4.10E+01 cfu/g dry weight.

Question: What about the “Pathogens in the cake” value (pathogens in the cake) of the same compound?
Answer: The value was “quickly become deactivated”.

Question: And the E. coli content (E. coli [2]; 0.5% dose urea, day 0)?
Answer: The E. coli content was 1.36E+06 cfu/g dry weight.

Question: What about the E. coli content (E. coli [2]; 0.5% dose urea, day 1) of the same compound?
Answer: Its E. coli content is 7.58E+06 cfu/g dry weight.

Question: And the E. coli content (E. coli [2]; 0.5% dose urea, day 8)?
Answer: The E. coli content was 1.32E+05 cfu/g dry weight.

Question: What about the E. coli content (E. coli [2]; 0.5% dose urea, day 14) of the same compound?
Answer: Its E. coli content is 1.18E+05 cfu/g dry weight.

Question: What about the E. coli content (E. coli [2]; 0.5% dose urea, day 22) of the same compound?
Answer: The E. coli content was 4.55E+04 cfu/g dry weight.

Question: What about the E. coli content (E. coli [2]; 1.0% dose urea, day 0) of the same compound?
Answer: Its E. coli content is 1.39E+06 cfu/g dry weight.

Question: And the E. coli content (E. coli [2]; 1.0% dose urea, day 1)?
Answer: Its E. coli content is 6.15E+06 cfu/g dry weight.

Question: What about the E. coli content (E. coli [2]; 1.0% dose urea, day 8) of the same compound?
Answer: Its E. coli content is 3.25E+03 cfu/g dry weight.

Question: And the E. coli content (E. coli [2]; 1.0% dose urea, day 14)?
Answer: Its E. coli content is 9.58E+02 cfu/g dry weight.

Question: And the E. coli content (E. coli [2]; 1.0% dose urea, day 22)?
Answer: Its E. coli content is 3.35E+02 cfu/g dry weight.

Question: What about the E. coli content (E. coli [2]; 1.5% dose urea, day 0) of the same compound?
Answer: Its E. coli content is 1.23E+06 cfu/g dry weight.

Question: What about the E. coli content (E. coli [2]; 1.5% dose urea, day 1) of the same compound?
Answer: The E. coli content was 1.30E+03 cfu/g dry weight.

Question: And the E. coli content (E. coli [2]; 1.5% dose urea, day 8)?
Answer: Its E. coli content is 9.03E+02 cfu/g dry weight.

Question: What about the E. coli content (E. coli [2]; 1.5% dose urea, day 14) of the same compound?
Answer: Its E. coli content is 2.09E+02 cfu/g dry weight.

Question: What about the E. coli content (E. coli [2]; 1.5% dose urea, day 22) of the same compound?
Answer: Its E. coli content is 1.00E+01 cfu/g dry weight.
